Data reported in patent US6339042B1, “Herbicidal N-cyclohexadienyl heteroaryloxyacetamides” (American Cyanamid Co., priority 1999, dated 2002).

Assays:
Conditions in all cases: three weeks after treatment
Amaranthus tuberculatus [1] = assay: Pre-emergence herbicidal evaluation, AMATA; type: in vivo
Text: (§1) The treated pots are then placed on greenhouse benches, watered and cared for in accordance with conventional greenhouse procedures.

Galium aparine [2] = assay: Pre-emergence herbicidal evaluation, GALAP; type: in vivo
Text: as §1

Alopecurus myosuroides [3] = assay: Pre-emergence herbicidal evaluation, ALOMY; type: in vivo
Text: as §1

Apera spica venti [4] = assay: Pre-emergence herbicidal evaluation, APESV; type: in vivo
Text: as §1

Echinochloa crus-galli [5] = assay: Pre-emergence herbicidal evaluation, ECHCG; type: in vivo
Text: as §1

Setaria viridis [6] = assay: Pre-emergence herbicidal evaluation, SETVI; type: in vivo
Text: as §1

Lolium perenne [7] = assay: Pre-emergence herbicidal evaluation, LOLPE; type: in vivo
Text: as §1

Triticum aestivum [8] = assay: Pre-emergence herbicidal evaluation, TRZAW; type: in vivo
Text: as §1

Hordeum vulgare [9] = assay: Pre-emergence herbicidal evaluation, HORVW; type: in vivo
Text: as §1

Zea mays [10] = assay: Pre-emergence herbicidal evaluation, ZEAMX; type: in vivo
Text: as §1

Glycine max [11] = assay: Pre-emergence herbicidal evaluation, GLXMA; type: in vivo
Text: as §1

Oryza sativum [12] = assay: Pre-emergence herbicidal evaluation, ORYSA; type: in vivo
Text: as §1

Amaranthus tuberculatus [13] = assay: Post-emergence herbicidal evaluation, AMATA; type: in vivo
Galium aparine [14] = assay: Post-emergence herbicidal evaluation, GALAP
Method: (§2) The compounds of the invention are tested for pre- and post-emergence herbicidal activity.
(§3) Each pot is examined three weeks after treatment and phytotoxicity is assessed according to the rating system set forth below.
(§4) These acetone solutions are diluted with water and the resulting formulations applied at dosage levels equivalent of about 0.4 to 0.1 kg per hectare of test compound per pot. After spraying the plants are placed on greenhouse benches and are cared for in the usual manner, commensurate with conventional greenhouse practices.

Alopecurus myosuroides [15] = assay: Post-emergence herbicidal evaluation, ALOMY
Apera spica venti [16] = assay: Post-emergence herbicidal evaluation, APESV
Echinochloa crus-galli [17] = assay: Post-emergence herbicidal evaluation, ECHCG
Method: as §2, §3, §4

Setaria viridis [18] = assay: Post-emergence herbicidal evaluation, SETVI
Lolium perenne [19] = assay: Post-emergence herbicidal evaluation, LOLPE
Triticum aestivum [20] = assay: Post-emergence herbicidal evaluation, TRZAW
Method: as §3, §4

Hordeum vulgare [21] = assay: Post-emergence herbicidal evaluation, HORVW
Method: as §3, §4

Zea mays [22] = assay: Post-emergence herbicidal evaluation, ZEAMX
Glycine max [23] = assay: Post-emergence herbicidal evaluation, GLXMA
Oryza sativum [24] = assay: Post-emergence herbicidal evaluation, ORYSA
Method: as §2, §3, §4

CCN(C(=O)COc1nnc(C(F)(F)F)s1)C1=CC(C)(C)CC(C)=C1 [Example 1]
phytotoxicity rating AMATA (Amaranthus tuberculatus [1]; 0.100 kg/ha): 0 (0 - No effect)
phytotoxicity rating AMATA (Amaranthus tuberculatus [1]; 0.200 kg/ha): 3 (3 - Moderate effect)
phytotoxicity rating AMATA (Amaranthus tuberculatus [1]; 0.400 kg/ha): 9 (9 - Complete kill)
phytotoxicity rating AMATA (Amaranthus tuberculatus [1]; 0.800 kg/ha): 9 (9 - Complete kill)
phytotoxicity rating GALAP (Galium aparine [2]; 0.100 kg/ha): 0 (0 - No effect)
phytotoxicity rating GALAP (Galium aparine [2]; 0.200 kg/ha): 4 (4 - Injury)
phytotoxicity rating GALAP (Galium aparine [2]; 0.400 kg/ha): 4 (4 - Injury)
phytotoxicity rating GALAP (Galium aparine [2]; 0.800 kg/ha): 4 (4 - Injury)
phytotoxicity rating ALOMY (Alopecurus myosuroides [3]; 0.100 kg/ha): 2 (2 - Slight effect)
phytotoxicity rating ALOMY (Alopecurus myosuroides [3]; 0.200 kg/ha): 3 (3 - Moderate effect)
phytotoxicity rating ALOMY (Alopecurus myosuroides [3]; 0.400 kg/ha): 9 (9 - Complete kill)
phytotoxicity rating ALOMY (Alopecurus myosuroides [3]; 0.800 kg/ha): 7 (7 - Good herbicidal effect)
phytotoxicity rating APESV (Apera spica venti [4]; 0.100 kg/ha): 6 (6 - Herbicidal effect)
phytotoxicity rating APESV (Apera spica venti [4]; 0.200 kg/ha): 8 (8 - Approaching complete kill)
phytotoxicity rating APESV (Apera spica venti [4]; 0.400 kg/ha): 9 (9 - Complete kill)
phytotoxicity rating APESV (Apera spica venti [4]; 0.800 kg/ha): 9 (9 - Complete kill)
phytotoxicity rating ECHCG (Echinochloa crus-galli [5]; 0.100 kg/ha): 4 (4 - Injury)
phytotoxicity rating ECHCG (Echinochloa crus-galli [5]; 0.200 kg/ha): 8 (8 - Approaching complete kill)
phytotoxicity rating ECHCG (Echinochloa crus-galli [5]; 0.400 kg/ha): 9 (9 - Complete kill)
phytotoxicity rating ECHCG (Echinochloa crus-galli [5]; 0.800 kg/ha): 9 (9 - Complete kill)
phytotoxicity rating SETVI (Setaria viridis [6]; 0.100 kg/ha): 4 (4 - Injury)
phytotoxicity rating SETVI (Setaria viridis [6]; 0.200 kg/ha): 7 (7 - Good herbicidal effect)
phytotoxicity rating SETVI (Setaria viridis [6]; 0.400 kg/ha): 8 (8 - Approaching complete kill)
phytotoxicity rating SETVI (Setaria viridis [6]; 0.800 kg/ha): 8 (8 - Approaching complete kill)
phytotoxicity rating LOLPE (Lolium perenne [7]; 0.100 kg/ha): 2 (2 - Slight effect)
phytotoxicity rating LOLPE (Lolium perenne [7]; 0.200 kg/ha): 3 (3 - Moderate effect)
phytotoxicity rating LOLPE (Lolium perenne [7]; 0.400 kg/ha): 9 (9 - Complete kill)
phytotoxicity rating LOLPE (Lolium perenne [7]; 0.800 kg/ha): 9 (9 - Complete kill)
phytotoxicity rating TRZAW (Triticum aestivum [8]; 0.100 kg/ha): 0 (0 - No effect)
phytotoxicity rating TRZAW (Triticum aestivum [8]; 0.200 kg/ha): 0 (0 - No effect)
phytotoxicity rating TRZAW (Triticum aestivum [8]; 0.400 kg/ha): 2 (2 - Slight effect)
phytotoxicity rating TRZAW (Triticum aestivum [8]; 0.800 kg/ha): 4 (4 - Injury)
phytotoxicity rating HORVW (Hordeum vulgare [9]; 0.100 kg/ha): 2 (2 - Slight effect)
phytotoxicity rating HORVW (Hordeum vulgare [9]; 0.200 kg/ha): 2 (2 - Slight effect)
phytotoxicity rating HORVW (Hordeum vulgare [9]; 0.400 kg/ha): 4 (4 - Injury)
phytotoxicity rating HORVW (Hordeum vulgare [9]; 0.800 kg/ha): 4 (4 - Injury)
phytotoxicity rating ZEAMX (Zea mays [10]; 0.100 kg/ha): 0 (0 - No effect)
phytotoxicity rating ZEAMX (Zea mays [10]; 0.200 kg/ha): 0 (0 - No effect)
phytotoxicity rating ZEAMX (Zea mays [10]; 0.400 kg/ha): 2 (2 - Slight effect)
phytotoxicity rating ZEAMX (Zea mays [10]; 0.800 kg/ha): 4 (4 - Injury)
phytotoxicity rating GLXMA (Glycine max [11]; 0.100 kg/ha): 0 (0 - No effect)
phytotoxicity rating GLXMA (Glycine max [11]; 0.200 kg/ha): 0 (0 - No effect)
phytotoxicity rating GLXMA (Glycine max [11]; 0.400 kg/ha): 2 (2 - Slight effect)
phytotoxicity rating GLXMA (Glycine max [11]; 0.800 kg/ha): 2 (2 - Slight effect)
phytotoxicity rating ORYSA (Oryza sativum [12]; 0.100 kg/ha): 0 (0 - No effect)
phytotoxicity rating ORYSA (Oryza sativum [12]; 0.200 kg/ha): 0 (0 - No effect)
phytotoxicity rating ORYSA (Oryza sativum [12]; 0.400 kg/ha): 3 (3 - Moderate effect)
phytotoxicity rating AMATA (Amaranthus tuberculatus [13]; 0.100 kg/ha): 0 (0 - No effect)
phytotoxicity rating AMATA (Amaranthus tuberculatus [13]; 0.200 kg/ha): 0 (0 - No effect)
phytotoxicity rating AMATA (Amaranthus tuberculatus [13]; 0.400 kg/ha): 0 (0 - No effect)
phytotoxicity rating GALAP (Galium aparine [14]; 0.100 kg/ha): 0 (0 - No effect)
phytotoxicity rating GALAP (Galium aparine [14]; 0.200 kg/ha): 0 (0 - No effect)
phytotoxicity rating GALAP (Galium aparine [14]; 0.400 kg/ha): 1 (1 - Trace effect)
phytotoxicity rating ALOMY (Alopecurus myosuroides [15]; 0.100 kg/ha): 6 (6 - Herbicidal effect)
phytotoxicity rating ALOMY (Alopecurus myosuroides [15]; 0.200 kg/ha): 6 (6 - Herbicidal effect)
phytotoxicity rating ALOMY (Alopecurus myosuroides [15]; 0.400 kg/ha): 8 (8 - Approaching complete kill)
phytotoxicity rating APESV (Apera spica venti [16]; 0.100 kg/ha): 5 (5 - Definite injury)
phytotoxicity rating APESV (Apera spica venti [16]; 0.200 kg/ha): 8 (8 - Approaching complete kill)
phytotoxicity rating APESV (Apera spica venti [16]; 0.400 kg/ha): 8 (8 - Approaching complete kill)
phytotoxicity rating ECHCG (Echinochloa crus-galli [17]; 0.100 kg/ha): 2 (2 - Slight effect)
phytotoxicity rating ECHCG (Echinochloa crus-galli [17]; 0.200 kg/ha): 4 (4 - Injury)
phytotoxicity rating ECHCG (Echinochloa crus-galli [17]; 0.400 kg/ha): 7 (7 - Good herbicidal effect)
phytotoxicity rating SETVI (Setaria viridis [18]; 0.100 kg/ha): 0 (0 - No effect)
phytotoxicity rating SETVI (Setaria viridis [18]; 0.200 kg/ha): 2 (2 - Slight effect)
phytotoxicity rating SETVI (Setaria viridis [18]; 0.400 kg/ha): 3 (3 - Moderate effect)
phytotoxicity rating LOLPE (Lolium perenne [19]; 0.100 kg/ha): 6 (6 - Herbicidal effect)
phytotoxicity rating LOLPE (Lolium perenne [19]; 0.200 kg/ha): 8 (8 - Approaching complete kill)
phytotoxicity rating LOLPE (Lolium perenne [19]; 0.400 kg/ha): 8 (8 - Approaching complete kill)
phytotoxicity rating TRZAW (Triticum aestivum [20]; 0.100 kg/ha): 0 (0 - No effect)
phytotoxicity rating TRZAW (Triticum aestivum [20]; 0.200 kg/ha): 0 (0 - No effect)
phytotoxicity rating TRZAW (Triticum aestivum [20]; 0.400 kg/ha): 1 (1 - Trace effect)
phytotoxicity rating HORVW (Hordeum vulgare [21]; 0.100 kg/ha): 0 (0 - No effect)
phytotoxicity rating HORVW (Hordeum vulgare [21]; 0.200 kg/ha): 0 (0 - No effect)
phytotoxicity rating HORVW (Hordeum vulgare [21]; 0.400 kg/ha): 0 (0 - No effect)
phytotoxicity rating ZEAMX (Zea mays [22]; 0.100 kg/ha): 0 (0 - No effect)
phytotoxicity rating ZEAMX (Zea mays [22]; 0.200 kg/ha): 0 (0 - No effect)
phytotoxicity rating ZEAMX (Zea mays [22]; 0.400 kg/ha): 0 (0 - No effect)
phytotoxicity rating GLXMA (Glycine max [23]; 0.100 kg/ha): 4 (4 - Injury)
phytotoxicity rating GLXMA (Glycine max [23]; 0.200 kg/ha): 5 (5 - Definite injury)
phytotoxicity rating GLXMA (Glycine max [23]; 0.400 kg/ha): 4 (4 - Injury)
phytotoxicity rating ORYSA (Oryza sativum [24]; 0.100 kg/ha): 0 (0 - No effect)
phytotoxicity rating ORYSA (Oryza sativum [24]; 0.200 kg/ha): 0 (0 - No effect)
phytotoxicity rating ORYSA (Oryza sativum [24]; 0.400 kg/ha): 3 (3 - Moderate effect)
